Assay results published in ChEMBL document CHEMBL1137822 (J Med Chem, 2004).

Legend:
Acetylcholinesterase = Acetylcholinesterase (Homo sapiens, UniProt P22303); experiment: Inhibitory concentration against human serum acetylcholinesterase activity
Cholinesterase = Cholinesterase (Homo sapiens, UniProt P06276); experiment: Inhibitory concentration against human serum butyrylcholinesterase activity
Chain of Cholinesterase (P06276 whole entry): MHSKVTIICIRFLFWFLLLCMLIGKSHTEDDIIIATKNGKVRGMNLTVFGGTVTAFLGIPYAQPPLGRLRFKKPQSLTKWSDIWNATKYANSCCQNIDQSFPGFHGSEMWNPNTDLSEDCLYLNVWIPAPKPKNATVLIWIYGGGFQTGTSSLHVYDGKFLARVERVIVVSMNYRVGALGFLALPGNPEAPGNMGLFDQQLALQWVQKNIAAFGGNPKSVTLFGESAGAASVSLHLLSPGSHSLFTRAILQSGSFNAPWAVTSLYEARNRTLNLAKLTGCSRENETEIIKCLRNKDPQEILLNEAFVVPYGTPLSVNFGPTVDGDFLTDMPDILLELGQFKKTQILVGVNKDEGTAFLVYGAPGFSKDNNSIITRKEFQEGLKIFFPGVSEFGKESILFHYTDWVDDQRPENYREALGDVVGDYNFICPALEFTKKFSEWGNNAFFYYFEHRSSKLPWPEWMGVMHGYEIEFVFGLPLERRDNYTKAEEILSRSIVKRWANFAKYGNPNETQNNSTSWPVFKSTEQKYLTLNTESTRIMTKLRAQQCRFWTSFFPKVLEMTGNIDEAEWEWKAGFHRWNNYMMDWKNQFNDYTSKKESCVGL

Chain of Acetylcholinesterase (P22303 whole entry): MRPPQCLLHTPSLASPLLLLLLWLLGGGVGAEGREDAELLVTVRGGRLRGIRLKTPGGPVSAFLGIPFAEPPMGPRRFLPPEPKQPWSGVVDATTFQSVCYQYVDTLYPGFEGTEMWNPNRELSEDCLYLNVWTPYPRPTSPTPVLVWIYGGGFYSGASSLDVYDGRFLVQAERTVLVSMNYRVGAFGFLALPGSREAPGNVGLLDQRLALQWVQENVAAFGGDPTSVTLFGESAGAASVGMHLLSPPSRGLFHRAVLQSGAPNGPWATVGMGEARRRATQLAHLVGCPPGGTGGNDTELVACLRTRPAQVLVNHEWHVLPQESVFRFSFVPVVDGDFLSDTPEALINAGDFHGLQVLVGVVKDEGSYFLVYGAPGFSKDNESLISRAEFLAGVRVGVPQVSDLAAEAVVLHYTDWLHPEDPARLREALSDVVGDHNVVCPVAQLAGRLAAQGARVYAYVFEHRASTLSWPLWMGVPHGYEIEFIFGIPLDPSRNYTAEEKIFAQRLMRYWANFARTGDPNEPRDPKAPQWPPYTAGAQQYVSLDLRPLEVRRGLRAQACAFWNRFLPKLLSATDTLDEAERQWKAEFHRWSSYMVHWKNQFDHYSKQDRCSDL

Question: What does the source list for CNC(=O)Oc1cccc2c1OCC1CCN(C)C21 (centres undefined)?
Answer: IC50 (Acetylcholinesterase): 0.03 µM; IC50 (Cholinesterase): 0.0594 µM

Question: CCCCCCCNC(=O)Oc1cccc2c1OCC1CCN(C)C21 (centres undefined) was tested. Which IC50 (Acetylcholinesterase) did it give?
Answer: 0.0203 µM

Question: What about the IC50 (Cholinesterase) of the same molecule?
Answer: 0.00126 µM

Question: Which results are given for CCNC(=O)Oc1cccc2c1OCC1CCN(C)C21 (centres undefined)?
Answer: IC50 (Acetylcholinesterase): 0.42 µM; IC50 (Cholinesterase): 0.0444 µM

Question: Which IC50 (Acetylcholinesterase) does the source give for CCNC(=O)Oc1cccc2c1CCC1CCN(C)C21 (centres undefined) here?
Answer: 0.393 µM

Question: And the IC50 (Cholinesterase)?
Answer: 0.0303 µM

Question: For CNC(=O)Oc1cccc(C(C)N(C)C)c1 (centres undefined), which IC50 (Cholinesterase) is on record?
Answer: 0.406 µM

Question: How did the IC50 (Cholinesterase) turn out when CC(NC(=O)Oc1cccc2c1OCC1CCN(C)C21)c1ccccc1 (centres undefined) was run?
Answer: 0.209 µM

Question: For CNC(=O)Oc1cccc2c1SCC1CCN(C)C21 (centres undefined), which IC50 (Acetylcholinesterase) is on record?
Answer: 0.00811 µM

Question: What about the IC50 (Cholinesterase) of the same molecule?
Answer: 0.0105 µM

Question: Which results are given for CNC(=O)Oc1cccc2c1CCC1CCN(C)C21 (centres undefined)?
Answer: IC50 (Acetylcholinesterase): 0.0173 µM; IC50 (Cholinesterase): 0.0245 µM
